Non-standard residues stand in square brackets, D forms with d. Residues, ends and D or L forms follow the SMILES beside them.
Legend:
LN-18 cells = assay: Cell death by PI staining and flow cytometry, LN-18; type: cell-based, human; settings: 6 h at 37°C, serum-free medium, means ± SD (n=3), Fig 1H, read-out: IC50 for inducing cell death
Source text: Figure 1 VDAC1-based peptides induce dramatic cell death of several brain tumor-derived cell lines but to lesser extent in primary brain cells A. IHC staining of VDAC1 of human normal brain (n=13) or glioblastoma (n=41) in tissue array slides (Biomax), as described in Materials and methods available online in Supplemental information. Percentages of sections stained at the intensity indicated are shown. […] The VDAC1-derived sequences Δ(1-14)N-terminus and LP4 are in green and pink, respectively. The cell-penetrating peptides Antp and Tf are in orange and blue, respectively. The loop shape of LP4 stabilized by a tryptophan zipper is in purple. The amino acids of Δ(1-14)N-terminus, LP4 and Antp are in the D configuration. The sequences of D-LP4 and Retro-D-LP4 are presented below. C. […] Cells were harvested, washed twice with PBS and cell death was analyzed by propidium iodide (PI) staining and flow cytometry. […] Cells were harvested, washed twice with PBS and cell death was analyzed by PI staining and flow cytometry. […]
Cells (6×10^5 /ml) were incubated in 500 μl serum-free medium with the peptide of interest for 6 h at 37°C in the presence of 5% CO2. The cells were then trypsinized, centrifuged (1500xg, 5 min), washed with PBS and analyzed for cell death using propidium iodide (PI) staining and flow cytometer (Beckton-Dickinson, San Jose, CA) and BD CellQuest Pro software. […]

[1] = Blood-brain barrier crossing in the intracranial xenograft model; type: in vivo, mouse; settings: i.v.; concluded from intracranial tumor model
Procedure: (§1) B. U-87MG cells (2×10^5) were incubated for 12 h with the indicated concentrations of DMSO, Retro-Tf-D-LP4 peptide (Pep), or Retro-Tf-D-LP4 encapsulated in PLGA nanoparticles (PLGA-Pep). Samples of Retro-Tf-D-LP4 encapsulated in PLGA nanoparticles were centrifuged (15000g, 5 min) to separate the supernatant (Sup), containing free peptide, and the pellet, containing encapsulated Retro-Tf-D-LP4 peptide. Cell death was analyzed by PI staining and FACS analysis. C. Graphical representation of the orthotopic animal experiment. D. MRI imaging of brains 29 days post-intravenal treatment start with DMSO (1.05%), Retro-Tf-D-LP4 (10 mg/kg) encapsulated in PLGA nanoparticles or Tf-D-Retro-LP4 peptide (10 mg/Kg), as described in Materials and Methods available online in Supplemental information. E. Calculated tumor volumes after 20 (dark grey bars) and 29 (light grey bars) days post-treatment start. Results = mean ± SE (n = 6) (* p<0.05, *** p<0.001). F. Kaplan-Meier survival curves showing statistically significant differences in survival curves between the PBS/DMSO and Retro-Tf-D-LP4 treated mice. […]
(§2) For the intracranial-orthotopic xenograft mouse model, U-87MG cells (8×10^4) were engrafted into a nude mouse brain using a stereotactic device. […] Tumor volume was analyzed using VivoQuant 2.10 software.

[2] = tested on: mice bearing U-87MG intracranial xenografts; assay: Survival (Kaplan-Meier) in U-87MG intracranial xenograft; type: in vivo, human U-87MG in nude mice; settings: 10 mg/kg i.v., treatment ended day 46 post-inoculation
Procedure: as §1, §2

Row | SMILES | IC50 (LN-18 cells) | crossing of the blood-brain barrier / reaching the brain [1] | prolongation of survival relative to untreated mice [2] | mice with prolonged survival ([2]; followed another 46 days, untreated all died by day 32)
1 | CC[C@@H](C)[C@@H](NC(=O)[C@@H](CCCCN)NC(=O)[C@H](NC(=O)[C@@H](CCC(N)=O)NC(=O)[C@@H](CCCNC(=N)N)NC(=O)[C@@H](CC(C)C)NC(=O)CNC(=O)[C@@H](Cc1ccccc1)NC(=O)CNC(=O)[C@@H](Cc1ccc(O)cc1)NC(=O)CNC(=O)[C@@H](CCCCN)NC(=O)[C@H](NC(=O)[C@@H](Cc1ccccc1)NC(=O)[C@H](NC(=O)[C@@H](CC(=O)O)NC(=O)[C@H](N)CCCNC(=N)N)C(C)C)[C@H](C)O)[C@H](C)CC)C(=O)N[C@H](Cc1c[nH]c2ccccc12)C(=O)N[C@H](Cc1ccccc1)C(=O)N[C@H](CCC(N)=O)C(=O)N[C@H](CC(N)=O)C(=O)N[C@H](CCCNC(=N)N)C(=O)N[C@H](CCCNC(=N)N)C(=O)N[C@H](CCSC)C(=O)N[C@H](CCCCN)C(=O)N[C@H](Cc1c[nH]c2ccccc12)C(=O)N[C@H](CCCCN)C(=O)N[C@H](CCCCN)C(=O)O [D-ΔN-Ter-Antp] (H-[dR][dD][dV][dF][dT][dK]G[dY]G[dF]G[dL][dR][dQ][dI][dK][dI][dW][dF][dQ][dN][dR][dR][dM][dK][dW][dK][dK]-OH; N-terminus and C-terminus assumed) | 3000 ± 600 nM | – | – | –
2 | CC[C@H](C)[C@H](NC(=O)[C@H](Cc1ccc(O)cc1)NC(=O)[C@@H]1CCCN1C(=O)[C@H](CCCNC(=N)N)NC(=O)[C@H](Cc1c[nH]cn1)NC(=O)[C@H](CO)NC(=O)[C@H](Cc1c[nH]c2ccccc12)NC(=O)[C@@H](NC(=O)[C@H](Cc1c[nH]c2ccccc12)NC(=O)[C@H](CCC(=O)O)NC(=O)[C@@H](CCCCN)NC(=O)[C@@H](CCCCN)NC(=O)[C@@H](CC(C)C)NC(=O)[C@@H](CCC(=O)O)NC(=O)[C@H](NC(=O)[C@@H](C)NC(=O)[C@H](NC(=O)[C@@H](CC(N)=O)NC(=O)[C@@H](CC(C)C)NC(=O)[C@@H](C)NC(=O)[C@@H](Cc1c[nH]c2ccccc12)NC(=O)[C@H](NC(=O)[C@@H](C)NC(=O)CNC(=O)[C@@H](CC(N)=O)NC(=O)[C@@H](CO)NC(=O)[C@@H](CC(N)=O)NC(=O)[C@H](CCCCN)NC(=O)[C@H](Cc1c[nH]c2ccccc12)NC(=O)[C@@H](NC(=O)[C@H](Cc1c[nH]c2ccccc12)NC(=O)[C@@H](N)CCCCN)[C@@H](C)O)[C@H](C)O)C(C)C)[C@H](C)O)[C@@H](C)O)C(=O)N[C@@H](C)C(=O)N[C@@H](Cc1c[nH]cn1)C(=O)O [Retro-Tf-D-LP4] | – | able to cross the blood-brain barrier in vivo | over 60 days | 40%

Reference: article PMC5458211, “Mitochondrial VDAC1-based peptides: Attacking oncogenic properties in glioblastoma” (Oncotarget, 2017)
